How the values were obtained:
[1] = tested on: pancreatic exocrine function; experiment: 13C-dipeptide breath test in normal rats (Δ13C in exhaled CO2 after oral administration); format: in vivo, rat; conditions: for Δ^13C(‰) peak value / Peak time: oral 35 μmol/kg (5 ml/kg); for Δ^13C(‰) peak value: exhaled CO2; for Δ^13C(‰) value at 5 min after the administration / Δ^13C(‰) value at 10 min after the administration / Δ^13C(‰) value at 15 min after the administration / Δ^13C(‰) value at 20 min after the administration: normal rats, mean±SD; for Δ^13C(‰) value at 5 min after the administration / Δ^13C(‰) value at 10 min after the administration / Δ^13C(‰) value at 15 min after the administration / Δ^13C(‰) value at 20 min after the administration / Δ^13C(‰) peak value compared with the peak value of Bz-Ala-(^13C-Ala)-ONa: oral 35 μmol/kg; for Δ^13C(‰) peak value compared with the peak value of Bz-Ala-(^13C-Ala)-ONa: comparison in words
Procedure: (§1) Overnight-fasted rats (male, Wistar, 8-week old) in the awake state were individually fixed in a rat holder of a microwave irradiation apparatus. The breath was collected at a rate of about 100 to 300 ml/min using a stroke pump (Variable Stroke Pump VS-500; Shibata Kagaku Kogyo), and the CO2 concentration therein was maintained at about 3%. A Perma Pure drier (MD-050-12P; Perma Pure INC.) was set between the rat holder and the stroke pump to remove water vapor from the breath. When the CO2 concentration was stabilized, the rat was temporarily released from the rat holder. A ^13C-labeled dipeptide or a sodium salt thereof each dissolved in distilled water was administered to the stomach of the rat using an oral probe [dose: 35 μmol/kg (5 ml/kg)]. The breath was sampled with a syringe every 5 min until up to 20 min. A 15 ml sample was transferred from the syringe into a vacuum vial (10 ml), sealed and subjected to automated analysis by GC-MS (Breath MAT) [FinniganMAT]. Δ^13C(‰) was calculated from δ^13C values which are ^13C values of a sample (i.e. differences from the standard substance PDB) using the following formula. Δ^13C(‰)=(δ^13C)tmin−((δ^13C)0 min <Breath MAT Measuring Conditions>
Apparatus: Breath MAT plus (Finningan)
Using Ac-Met-(^13C-Ala)-ONa, Z-Met-(^13C-Ala)-ONa, Boc-Met-(^13C-Ala)-ONa or Boc-Phe-(^13C-Ala)-ONa [dose: 35 μmol/kg (5 ml/kg)], ^13C-breath tests were carried out in the same manner as in Example 12. The resultant Δ^13C(‰) peak values were compared with the Δ^13C(‰) peak value in the Bz-Ala-(^13C-Ala)-ONa breath test.
(§2) As in Example 12, Bz-Phe-(^13C-Ala)-ONa [dose: 12.6 mg/kg (35 μmol/kg)], Bz-Gln-(^13C-Ala)-ONa [dose: 12.0 mg/kg (35 μmol/kg)], Bz-Val-(^13C-Ala)-ONa [dose: 11.0 mg/kg (35 μmol/kg)], Bz-Tyr-(^13C-Ala)-ONa [dose: 13.2 mg/kg (35 μmol/kg)], Bz-Met-(^13C-Ala)-ONa [dose: 12.1 mg/kg (35 μmol/kg)], Bz-Ser-(^13C-Ala)-ONa [dose: 10.6 mg/kg (35 μmol/kg)], Bz-Thr-(^13C-Ala)-ONa [dose: 11.0 mg/kg (35 μmol/kg)] or Boc-Phe-(^13C-Ala)-ONa [dose: 8.84 mg/kg (24.6 μmol/kg)] was administered orally to normal rats and chronic pancreatitis rats. Then, the time course of the degree of increase of the ^13C concentration in exhaled CO2 (Δ^13C(‰)) was measured.

[2] = tested on: pancreatic exocrine function; experiment: 13C-dipeptide breath test in chronic pancreatitis rats (oleic acid injected into pancreatic duct); format: in vivo, rat; conditions: oral 35 μmol/kg, mean±SD
Procedure: as §1
Chronic pancreatitis rats were created according to the method of Mundlos et al., Pancreas 1:29 (1986). Oleic acid was injected into the pancreatic duct of 5-week old Wistar male rats. After breeding for 3 weeks, they were used in ^13C-dipeptide breath tests.
as §2

[3] = Table 1, overnight-fasted Wistar rats
[4] = Table 1, overnight-fasted Wistar rats, peak in time course of Δ13C(‰) up to 20 min

In the case of `CC(C)C[C@H](NC(=O)c1ccccc1)C(=O)N[C@@H](C)[13C](=O)[O-].[Na+]` [Na salt of Bz-Leu-(^13C-Ala), reference compound], the “Δ^13C(‰) peak value” [1, 3] is reported as 42.77 ‰ and the “Peak time” value [1, 4] is reported as 15 min.
In the case of `C[C@H](NC(=O)[C@H](CO)NC(=O)c1ccccc1)[13C](=O)[O-].[Na+]` [Na salt of Bz-Ser-(^13C-Ala), N-benzoyl-L-seryl-^13C-L-alanine], the “Δ^13C(‰) value at 5 min after the administration” value (“Δ^13C(‰) value at 5 min” for short) [2] is reported as 1.07±1.43 ‰, the “Δ^13C(‰) value at 10 min after the administration” value (“Δ^13C(‰) value at 10 min” below) [2] is reported as 5.94±8.13 ‰ and the “Δ^13C(‰) value at 15 min after the administration” value (“Δ^13C(‰) value at 15 min” below) [2] is reported as 10.34±11.99 ‰. For the same compound, the “Δ^13C(‰) value at 20 min after the administration” value (“Δ^13C(‰) value at 20 min” below) [2] was 12.80±11.97 ‰, the “Δ^13C(‰) peak value” [1, 3] was 47.48 ‰ and the “Peak time” value [1, 4] was 15 min. For the same compound, the “Δ^13C(‰) value at 5 min” value [1] was 8.29±4.94 ‰, the “Δ^13C(‰) value at 10 min” value [1] was 35.91±11.85 ‰ and the “Δ^13C(‰) value at 15 min” value [1] was 47.48±12.89 ‰. The “Δ^13C(‰) value at 20 min” value [1] was 43.04±5.30 ‰ and the “Δ^13C(‰) peak value compared with the peak value of Bz-Ala-(^13C-Ala)-ONa” value ([1]; rats) was “higher”.
With `C[C@H](NC(=O)[C@H](Cc1ccc(O)cc1)NC(=O)c1ccccc1)[13C](=O)[O-].[Na+]` [Na salt of Bz-Tyr-(^13C-Ala), N-benzoyl-L-tyrosyl-^13C-L-alanine] the “Δ^13C(‰) value at 5 min” value [2] was 4.35±3.11 ‰, the “Δ^13C(‰) value at 10 min” value [2] was 15.65±7.93 ‰ and the “Δ^13C(‰) value at 15 min” value [2] was 24.68±9.48 ‰. The “Δ^13C(‰) value at 20 min” value [2] was 29.25±9.98 ‰, the “Δ^13C(‰) peak value” [1, 3] was 52.64 ‰ and the “Peak time” value [1, 4] was 15 min. The “Δ^13C(‰) value at 5 min” value [1] was 10.33±6.34 ‰, the “Δ^13C(‰) value at 10 min” value [1] was 33.62±4.76 ‰ and the “Δ^13C(‰) value at 15 min” value [1] was 52.64±11.32 ‰. For the same compound, the “Δ^13C(‰) value at 20 min” value [1] was 45.61±5.27 ‰ and the “Δ^13C(‰) peak value compared with the peak value of Bz-Ala-(^13C-Ala)-ONa” value ([1]; rats) was “higher”.
For `CSCC[C@H](NC(=O)OCc1ccccc1)C(=O)N[C@@H](C)[13C](=O)[O-].[Na+]` [Na salt of Z-Met-(^13C-Ala), benzyloxycarbonyl-L-methionyl-^13C-L-alanine], the “Peak time” value ([1]; Table 2, rats) was 15 min, the “Δ^13C(‰) peak value” ([1]; Table 2, rats) was 48.71 ‰ and the “Δ^13C(‰) peak value compared with the peak value of Bz-Ala-(^13C-Ala)-ONa” value ([1]; rats) was “higher”.
`CSCC[C@H](NC(C)=O)C(=O)N[C@@H](C)[13C](=O)[O-].[Na+]` [Na salt of Ac-Met-(^13C-Ala), acetyl-L-methionyl-^13C-L-alanine] was tested, and the “Peak time” value ([1]; Table 2, rats) was 15 min, the “Δ^13C(‰) peak value” ([1]; Table 2, rats) was 63.15 ‰ and the “Δ^13C(‰) peak value compared with the peak value of Bz-Ala-(^13C-Ala)-ONa” value ([1]; rats) was “higher”.
In the case of `CSCC[C@H](NC(=O)c1ccccc1)C(=O)N[C@@H](C)[13C](=O)[O-].[Na+]` [Na salt of Bz-Met-(^13C-Ala), N-benzoyl-L-methionyl-^13C-L-alanine], the “Δ^13C(‰) value at 5 min” value [2] is reported as 1.52±1.47 ‰, the “Δ^13C(‰) value at 10 min” value [2] is reported as 7.69±5.15 ‰ and the “Δ^13C(‰) value at 15 min” value [2] is reported as 14.59±8.50 ‰. For the same compound, the “Δ^13C(‰) value at 20 min” value [2] was 20.25±9.43 ‰, the “Δ^13C(‰) peak value” [1, 3] was 48.88 ‰ and the “Peak time” value [1, 4] was 10 min. For the same compound, the “Δ^13C(‰) value at 5 min” value [1] was 19.76±10.16 ‰, the “Δ^13C(‰) value at 10 min” value [1] was 48.88±17.45 ‰ and the “Δ^13C(‰) value at 15 min” value [1] was 45.53±8.00 ‰. For the same compound, the “Δ^13C(‰) value at 20 min” value [1] was 38.58±3.79 ‰ and the “Δ^13C(‰) peak value compared with the peak value of Bz-Ala-(^13C-Ala)-ONa” value ([1]; rats) was “higher”.
With `C[C@H](NC(=O)[C@H](CCCCN)NC(=O)c1ccccc1)[13C](=O)O` [Bz-Lys-(^13C-Ala), reference compound] the “Δ^13C(‰) peak value” [1, 3] was 38.57 ‰ and the “Peak time” value [1, 4] was 15 min.
With `C[C@H](NC(=O)[C@H](Cc1ccccc1)NC(=O)c1ccccc1)[13C](=O)[O-].[Na+]` [Na salt of Bz-Phe-(^13C-Ala), N-benzoyl-L-phenylalanyl-^13C-L-alanine] the “Δ^13C(‰) value at 5 min” value [2] was 4.17±3.95 ‰, the “Δ^13C(‰) value at 10 min” value [2] was 14.56±10.79 ‰ and the “Δ^13C(‰) value at 15 min” value [2] was 22.80±12.36 ‰. The “Δ^13C(‰) peak value” [1, 3] was 55.62 ‰, the “Peak time” value [1, 4] was 10 min and the “Δ^13C(‰) value at 5 min” value [1] was 29.32±13.57 ‰. The “Δ^13C(‰) value at 10 min” value [1] was 55.62±6.62 ‰, the “Δ^13C(‰) value at 15 min” value [1] was 45.44±3.44 ‰ and the “Δ^13C(‰) peak value compared with the peak value of Bz-Ala-(^13C-Ala)-ONa” value ([1]; rats) was “higher”.
In the case of `CSCC[C@H](NC(=O)OC(C)(C)C)C(=O)N[C@@H](C)[13C](=O)[O-].[Na+]` [Na salt of Boc-Met-(^13C-Ala), t-butyloxycarbonyl-L-methionyl-^13C-L-alanine], the “Peak time” value ([1]; Table 2, rats) is reported as 15 min, the “Δ^13C(‰) peak value” ([1]; Table 2, rats) is reported as 55.50 ‰ and the “Δ^13C(‰) peak value compared with the peak value of Bz-Ala-(^13C-Ala)-ONa” value ([1]; rats) is reported as “higher”.
With `C[C@H](NC(=O)c1ccccc1)C(=O)N[C@@H](C)[13C](=O)[O-].[Na+]` [Na salt of Bz-Ala-(^13C-Ala), reference compound] the “Δ^13C(‰) peak value” [1, 3] was 45.88 ‰, the “Peak time” value [1, 4] was 10 min and the “Peak time” value ([1]; Table 2, rats) was 10 min. For the same compound, the “Δ^13C(‰) peak value” ([1]; Table 2, rats) was 45.88 ‰.
With `C[C@H](NC(=O)[C@H](CS)NC(=O)c1ccccc1)[13C](=O)[O-].[Na+]` [Na salt of Bz-Cys-(^13C-Ala), reference compound] the “Δ^13C(‰) peak value” [1, 3] was 31.52 ‰ and the “Peak time” value [1, 4] was 10 min.
For `C[C@H](NC(=O)[C@H](CC(=O)O)NC(=O)c1ccccc1)[13C](=O)[O-].[Na+]` [Na salt of Bz-Asp-(^13C-Ala), reference compound], the “Δ^13C(‰) peak value” [1, 3] was 11.47 ‰ and the “Peak time” value [1, 4] was 20 min.
`C[C@H](NC(=O)[C@@H](NC(=O)c1ccccc1)[C@@H](C)O)[13C](=O)[O-].[Na+]` [Na salt of Bz-Thr-(^13C-Ala), N-benzoyl-L-threonyl-^13C-L-alanine] was tested, and the “Δ^13C(‰) value at 10 min” value [2] was 12.67±19.74 ‰, the “Δ^13C(‰) value at 15 min” value [2] was 19.78±24.70 ‰ and the “Δ^13C(‰) peak value” [1, 3] was 47.36 ‰. The “Peak time” value [1, 4] was 10 min, the “Δ^13C(‰) value at 10 min” value [1] was 47.36±10.99 ‰ and the “Δ^13C(‰) value at 15 min” value [1] was 47.11±5.67 ‰. For the same compound, the “Δ^13C(‰) peak value compared with the peak value of Bz-Ala-(^13C-Ala)-ONa” value ([1]; rats) was “higher”.
With `C[C@H](NC(=O)[C@H](CCCNC(=N)N)NC(=O)c1ccccc1)[13C](=O)O` [Bz-Arg-(^13C-Ala), reference compound] the “Δ^13C(‰) peak value” [1, 3] was 42.83 ‰ and the “Peak time” value [1, 4] was 15 min.
For `C[C@H](NC(=O)CNC(=O)c1ccccc1)[13C](=O)[O-].[Na+]` [Na salt of Bz-Gly-(^13C-Ala), reference compound], the “Δ^13C(‰) peak value” [1, 3] was 32.14 ‰ and the “Peak time” value [1, 4] was 20 min.
`C[C@H](NC(=O)[C@H](CC(N)=O)NC(=O)c1ccccc1)[13C](=O)[O-].[Na+]` [Na salt of Bz-Asn-(^13C-Ala), reference compound] was tested, and the “Δ^13C(‰) peak value” [1, 3] was 41.74 ‰ and the “Peak time” value [1, 4] was 15 min.
In the case of `C[C@H](NC(=O)[C@H](Cc1cnc[nH]1)NC(=O)c1ccccc1)[13C](=O)[O-].[Na+]` [Na salt of Bz-His-(^13C-Ala), reference compound], the “Δ^13C(‰) peak value” [1, 3] is reported as 36.17 ‰ and the “Peak time” value [1, 4] is reported as 20 min.
With `CC[C@H](C)[C@H](NC(=O)c1ccccc1)C(=O)N[C@@H](C)[13C](=O)[O-].[Na+]` [Na salt of Bz-Ile-(^13C-Ala), reference compound] the “Δ^13C(‰) peak value” [1, 3] was 39.82 ‰ and the “Peak time” value [1, 4] was 20 min.
`C[C@H](NC(=O)[C@H](Cc1c[nH]c2ccccc12)NC(=O)c1ccccc1)[13C](=O)[O-].[Na+]` [Na salt of Bz-Trp-(^13C-Ala), reference compound] was tested, and the “Δ^13C(‰) peak value” [1, 3] was 39.76 ‰ and the “Peak time” value [1, 4] was 15 min.

Source: patent US7662857B2, “Diagnostic agents for pancreatic exocrine function” (Tokyo Gas Company Limited, priority 2001, dated 2010)
